Consider 45 compounds from patent publication US7498343B2, “Mycobacterial inhibitors” (priority 2002, dated 2009).

In test [1] the test system is Mycobacterium tuberculosis (strain H37RV). In words: In-vitro method for testing compounds against M. tuberculosis (resazurin growth inhibition, MIC). The class given is cell-based. The following applies: MIC data representing IC90's, 7 days incubation, resazurin fluorescence. For orientation: The colour change of resazurin is a common sign of viable cells or microbes.

For the next test, the system named is M. Smegmatis ATCC607. In words: In-vitro method for testing compounds for anti-bacterial activity against strain M. smegmatis ATCC607 (Alamar Blue growth inhibition). The following applies: M. smegmatis ATCC607; pIC50 = -logIC50, IC50 in M, 50% inhibitory concentration for bacterial growth; 48 hours incubation. The class given is cell-based. The protocol: C.2. In-vitro Method for Testing Compounds for Anti-bacterial Activity Against Strain M. Smegmatis ATCC607. […] Subsequently, stock solutions (7.8×final test concentration) of compounds were added in 45 μl volumes to a series of duplicate wells in column 2 so as to allow evaluation of their effects on bacterial growth. Serial five-fold dilutions (45 μl in 180 μl) were made directly in the microtiter plates from column 2 to 11 using a customised robot system (Zymark Corp., Hopkinton, Mass.). Pipette tips were changed after every 3 dilutions to minimize pipetting errors with high hydrophobic compounds. Untreated control samples with (column 1) and without (column 12) inoculum were included in each microtiter plate. Approximately 250 CFU per well of bacteria inoculum, in a volume of 100 μl in 2.8×Mueller-Hinton broth medium, was added to the rows […]. The same volume of broth medium without inoculum was added to column 12 in row A to H. The cultures were incubated at 37° C. for 48 hours in a humidified 5% CO2 atmosphere (incubator with open air valve and continuous ventilation). At the end of incubation, two days after inoculation, the bacterial growth was quantitated fluorometrically. Therefore Alamar Blue (10×) was added to all wells in a volume of 20 μl and plates were incubated for another 2 hours at […] The fluorescence was read in a computer-controlled fluorometer (Cytofluor, Biosearch) at an excitation wavelength of 530 nm and an emission wavelength of 590 nm (gain 30). The % growth inhibition achieved by the compounds was calculated according to standard methods.

One may read the pIC50 as −log10 of the IC50, conventionally taken in molar units. Low values mean a high IC50, high ones a low IC50. As to `COc1nc2ccc(Br)cc2cc1C(c1ccccc1)C(O)(CCN(C)C)c1ccc2ccccc2c1` (racemic) [Compound 45], the MIC in test [1] stood at 1.76 microgram/ml. Further, the pIC50 in the test on M. Smegmatis ATCC607 was determined as 8.0. Consider `COc1nc2ccc(Br)cc2cc1C(c1ccccc1)C(O)(CCN(C)C)c1ccc2ccccc2c1` (racemic) [Compound 46], for which the MIC in test [1] amounted to 1.76 microgram/ml. This compound also came in with a pIC50 with M. Smegmatis ATCC607 of 6.4. Take `COc1nc2ccc(Br)cc2cc1C(c1ccccc1)C(O)(CCN1CCN(C)CC1)c1ccccc1` (racemic) [Compound 51]: the pIC50 with M. Smegmatis ATCC607 came to 5.8. As for `COc1nc2ccc(Br)cc2cc1C(c1ccccc1)C(O)(CCN1CCN(C)CC1)c1ccccc1` (racemic) [Compound 52], the MIC in test [1] came out at 7.06 microgram/ml. This compound also showed a pIC50 with M. Smegmatis ATCC607 of 6.4. The matching figures for `COc1nc2ccc(Br)cc2cc1C(c1ccccc1)C(O)(CCn1cncn1)c1ccccc1` (racemic) [Compound 53]: 52.94 microgram/ml and 5.1. The matching figures for `COc1nc2ccc(Br)cc2cc1C(c1ccccc1)C(O)(CCn1cncn1)c1ccccc1` (racemic) [Compound 54]: 52.94 microgram/ml and 4.1. Consider `COc1nc2ccc(Br)cc2cc1C(c1ccccc1)C(O)(CCN1CCSCC1)c1ccccc1` (racemic) [Compound 55], for which the MIC in test [1] came to 44.77 microgram/ml. In the test on M. Smegmatis ATCC607, this compound showed a pIC50 of 5.1.

As to `COc1nc2ccc(Br)cc2cc1C(c1ccccc1)C(O)(CC[N+](C)(C)C)c1ccccc1.[I-]` (racemic) [Compound 57], the MIC in test [1] is 25.77 microgram/ml. In the test on M. Smegmatis ATCC607, this compound showed a negative logarithm of the IC50 (pIC50) of 5.4.

Consider `COc1nc2ccc(Br)cc2cc1C(c1ccccc1)C(O)(CC[N+](C)(C)[O-])c1ccccc1` (racemic) [Compound 58], for which the MIC in test [1] amounted to 16.49 microgram/ml. In the test with M. Smegmatis ATCC607, this compound came in with a pIC50 of 6.8. Regarding `COc1nc2ccc(Br)cc2cc1C(c1ccccc1)C(O)(CCN(C)C)c1ccccc1F` (racemic) [Compound 69], the MIC in test [1] is listed as 0.13 microgram/ml. For the same compound, in the test on M. Smegmatis ATCC607, the pIC50 stood at 8.5.

Compound `COc1nc2ccc(Br)cc2cc1C(c1ccccc1)C(O)(CCN(C)C)c1ccccc1F` (racemic) [Compound 70] yielded an MIC in test [1] of 52.35 microgram/ml. The compound also returned a pIC50 in the test with M. Smegmatis ATCC607 of 5.8. In the case of `COc1nc2ccc(Br)cc2cc1C(c1ccc(Cl)cc1)C(O)(CCN(C)C)c1cccc2ccccc12` (racemic) [Compound 73], the MIC in test [1] stood at 23.49 microgram/ml. The compound also registered a pIC50 in the test on M. Smegmatis ATCC607 of 8.0. As to `COc1nc2ccc(Br)cc2cc1C(c1ccc(Cl)cc1)C(O)(CCN(C)C)c1cccc2ccccc12` (racemic) [Compound 74], the MIC in test [1] was determined as 59.00 microgram/ml. Besides, the negative-log IC50 (pIC50) in the test with M. Smegmatis ATCC607 is on record as 6.5. In the same order, the values of `COc1nc2ccc(Br)cc2cc1C(c1ccccc1)C(O)(CCN(C)C)c1ccc2c(c1)OCO2` (racemic) [Compound 75] are 1.74 microgram/ml and 7.9. The matching figures for `COc1nc2ccc(Br)cc2cc1C(c1ccccc1)C(O)(CCN(C)C)c1ccc2c(c1)OCO2` (racemic) [Compound 76]: 1.74 microgram/ml and 5.9. In the same order, the values of `COc1nc2ccc(Br)cc2cc1C(c1ccccc1)C(O)(CCN(C)C)c1ccc2c(c1)OCCO2` (racemic) [Compound 77] are 8.93 microgram/ml and 7.2.

For the compound `COc1nc2ccc(Br)cc2cc1C(c1ccccc1)C(O)(CCN(C)C)c1ccc2c(c1)OCCO2` (racemic) [Compound 78], in test [1], the MIC came to 44.76 microgram/ml. In addition, the pIC50 in the test on M. Smegmatis ATCC607 was 5.8.

On to `CN(C)CCC(O)(c1cccc2ccccc12)C(c1ccccc1)c1cc2cc(Br)ccc2nc1N1CCOCC1` (racemic) [Compound 79], for which the MIC in test [1] is 2.43 microgram/ml. The compound also gave a pIC50 in the test on M. Smegmatis ATCC607 of 7.2. `COc1nc2ccc(Br)cc2cc1C(c1ccccc1)C(O)(CCN(C)C)c1ccc(C#N)cc1` (racemic) [Compound 80] came in with an MIC in test [1] of 2.11 microgram/ml. The same compound had a pIC50 in the test on M. Smegmatis ATCC607 of 7.1. In the same order, the values of `COc1nc2ccc(Br)cc2cc1C(c1ccccc1)C(O)(CCN(C)C)c1ccc(C#N)cc1` (racemic) [Compound 81] are 42.14 microgram/ml and 5.4. In the same order, the values of `COc1nc2ccc(C)cc2cc1C(c1ccccc1)C(O)(CCN(C)C)c1cccc2ccccc12` (racemic) [Compound 82] are 3.90 microgram/ml and 7.1. In the same order, the values of `COc1nc2ccc(C)cc2cc1C(c1ccccc1)C(O)(CCN(C)C)c1cccc2ccccc12` (racemic) [Compound 83] are 7.78 microgram/ml and 5.8.

The compound `COc1nc2ccc(-c3ccccc3)cc2cc1C(c1ccccc1)C(O)(CCN(C)C)c1cccc2ccccc12` (racemic) [Compound 84] yielded an MIC in test [1] of 8.76 microgram/ml. Moreover, the pIC50 in the test with M. Smegmatis ATCC607 is reported as 7.0.

`COc1nc2ccc(-c3ccccc3)cc2cc1C(c1ccccc1)C(O)(CCN(C)C)c1cccc2ccccc12` (racemic) [Compound 85] yielded an MIC in test [1] of 8.76 microgram/ml. Moreover, in the test on M. Smegmatis ATCC607, the pIC50 was found to be 5.9. The matching figures for `COc1nc2ccc(Br)cc2cc1C(c1ccccc1)C(O)(CCN(C)C)c1cccnc1` (racemic) [Compound 86]: 16.02 microgram/ml and 6.9. In the same order, the values of `COc1nc2ccc(Br)cc2cc1C(c1ccccc1)C(O)(CCN(C)C)c1cccnc1` (racemic) [Compound 87] are 40.23 microgram/ml and 5.0.

`CSc1nc2ccc(Br)cc2cc1C(c1ccccc1)C(O)(CCN(C)C)c1cccc2ccccc12` (racemic) [Compound 88]: the MIC in test [1] is recorded as 45.40 microgram/ml. The same compound returned a pIC50 in the test with M. Smegmatis ATCC607 of 6.8.

In test [1], `COc1nc2ccc(Br)cc2cc1C(c1ccccc1)C(O)(CCN(C)C)c1ccc(N2CCOCC2)cc1` (racemic) [Compound 89] registered an MIC of 59.06 microgram/ml. For the same compound, the pIC50 in the test on M. Smegmatis ATCC607 turned out to be 6.4. The matching figures for `COc1nc2ccc(Br)cc2cc1C(c1ccccc1)C(O)(CCN(C)C)c1ccc(N2CCOCC2)cc1` (racemic) [Compound 90]: 59.06 microgram/ml and 5.3.

The compound `COc1nc2ccccc2cc1C(c1ccccc1)C(O)(CCN(C)C)c1cccc2ccccc12` (racemic) [Compound 91] showed an MIC in test [1] of 1.51 microgram/ml. For the same compound, the pIC50 with M. Smegmatis ATCC607 turned out to be 7.5. In turn, `CN(C)CCC(O)(c1ccccc1)C(c1ccccc1)c1cc2cc(Br)ccc2nc1O` (single isomer, unassigned) [Compound 59] yielded a pIC50 in the test on M. Smegmatis ATCC607 of 5.1.

As for `CN(C)CCC(O)(c1ccccc1)C(c1ccccc1)c1cc2cc(Br)ccc2nc1O` (single isomer, unassigned) [Compound 60], the pIC50 in the test on M. Smegmatis ATCC607 came out at 5.6.

In turn, `CN(C)CCC(O)(c1ccccc1)C(c1ccccc1)c1cc2cc(Br)ccc2n2ccnc12` (single isomer, unassigned) [Compound 104] came in with a pIC50 with M. Smegmatis ATCC607 of 6.6. Still for that read-out and setting: the figure for `CN(C)CCC(O)(c1ccccc1)C(c1ccccc1)c1cc2cc(Br)ccc2n2ccnc12` (single isomer, unassigned) [Compound 105] is 6.0. Turning to `COc1nc2ccc(Br)cc2cc1C(c1ccccc1)C(O)(CCCN1CCOCC1)c1ccc2ccccc2c1` (single isomer, unassigned) [Compound 161], in test [1], the MIC was determined as 61.16 microgram/ml.

In test [1], `COc1nc2ccc(Br)cc2cc1C(c1ccccc1)C(O)(CCN1CCOCC1)c1ccc2cc(Br)ccc2c1` (single isomer, unassigned) [Compound 177] displayed an MIC of 67.65 microgram/ml. The same measure, in the same setting: under `COc1nc2ccc(Br)cc2cc1C(c1ccccc1)C(O)(CCn1ccnc1)c1cccc2ccccc12` (single isomer, unassigned) [Compound 187] stands 57.85 microgram/ml; under `COc1nc2ccc(Br)cc2cc1C(c1ccccc1)C(O)(CCN1CCN(c2ncccn2)CC1)c1ccc2ccccc2c1` (single isomer, unassigned) [Compound 209], 67.47 microgram/ml. In turn, `COc1nc2ccc(Br)cc2cc1C(c1ccccc1)C(O)(CCN(C)C)c1ccccc1` (centres unmarked) [Compound 1] showed a pIC50 with M. Smegmatis ATCC607 of 7.3.

`COc1nc2ccc(Br)cc2cc1C(c1ccccc1)C(O)(CCN(C)C)c1ccccc1` (centres unmarked) [Compound 2] gave a pIC50 in the test with M. Smegmatis ATCC607 of 6.8. Still for that read-out and setting: the figure for `COc1nc2ccc(Br)cc2cc1C(c1ccccc1)C(O)(CCN(C)C)c1ccccc1` (centres unmarked) [Compound 3] is 6.7; for `COc1nc2ccc(Br)cc2cc1C(c1ccccc1)C(O)(CCN(C)C)c1ccccc1` (centres unmarked) [Compound 4] it is 5.7.

In the test on M. Smegmatis ATCC607, `COc1nc2ccc(Br)cc2cc1C(c1ccccc1)C(O)(CCN(C)C)c1cc(F)ccc1F` (centres unmarked) [Compound 68] yielded a pIC50 of 6.4. Same read-out and setting: the figure for `COc1nc2ccc(Br)cc2cc1C(c1ccccc1)C(O)(CCN(C)C)c1cccc(F)c1` (centres unmarked) [Compound 108] is 7.0. As for `COc1nc2ccc(Br)cc2cc1C(c1ccccc1)C(O)(CCN1CCCCC1)c1ccc2ccccc2c1` (centres unmarked) [Compound 128], the MIC in test [1] amounted to 59.56 microgram/ml.
